System: in vitro platelet-rich thrombi
Experiment: Magnetic resonance imaging of in vitro platelet-rich thrombi
Format: cell-based, human
Settings: 10 μmol substance/L, 20 min incubation, washed three times with plasma, 1.5 T, versus control thrombus without contrast agent
Method: Magnetic resonance imaging of in vitro platelet-rich thrombi and incubation solution (example 8) using a 3D turbo spin echo sequence (1.5 T, Siemens Avanto, small extremity coil, TR 1050 ms, TE 9.1 ms, 0.5×0.5×0.6 mm^3). In FIG. 2a an in vitro control thrombus without the addition of a contrast agent is shown. The signal intensity of the control thrombus is slightly higher than the surrounding medium but clearly lower than the signal of the in vitro thrombus which was incubated with example 8 as depicted in FIG. 2b. In FIG. 2c the incubation solution with a final concentration of 10 μmol substance/L of example 8 in human plasma is represented. The signal intensity is higher than the surrounding plasma solutions in the in vitro platelet-rich thrombi 2a and 2b.
The in vitro thrombus in FIG. 2b is incubated with the solution which is depicted in FIG. 2c. After 20 min incubation period the thrombi was washed three times with plasma solution.
The MRI imaging experiments were done with platelet-rich plasma. The preparation of platelet-rich plasma using fresh blood is described in L K Jennings et. al. Blood 1986 1, 173-179 but modified with regard to centrifugation procedure. Briefly, fresh blood was taken from a volunteer using 10 mL citrate-tubes (Sarstedt S-Monovette 02.1067.001, 10 mL, Citrate 3.13%). The 10 mL citrate-tubes were carefully inverted 10 times to mix blood and anticoagulant. […]

Compound: CC(C(=O)NCC(=O)NC[C@H](NC(=O)CNC(=O)C(C)N1CCN(CC(=O)O)CCN(CC(=O)O)CCN(CC(=O)O)CC1)C(=O)NC[C@H](NC(=O)[C@H](CNC(=O)CNC(=O)C(C)N1CCN(CC(=O)O)CCN(CC(=O)O)CCN(CC(=O)O)CC1)NC(=O)CNC(=O)C(C)N1CCN(CC(=O)O)CCN(CC(=O)O)CCN(CC(=O)O)CC1)C(=O)NCCCCc1cccc(C#Cc2cncc([C@H](CC(=O)O)NC(=O)[C@@H]3CCCN(C(=O)CCC4CCNCC4)C3)c2)c1)N1CCN(CC(=O)O)CCN(CC(=O)O)CCN(CC(=O)O)CC1 (stereo partly shown) [Example 8]
- signal intensity of incubated in vitro thrombus (T1-weighted 3D TSE MRI): clearly higher signal than the control thrombi
